Where a name gives a salt, the structure may show the parent alone.
Assay: Solubility of salts in water, pH of the saturated solution and identity of the precipitate
Format: physicochemical
Details: for Precipitate: precipitate isolated after the solubility determination compared with the compound dissolved; for Solubility in words: summary of table 3; for Formation of hydrates: when precipitated from water; for Resulting pH: pH in the saturated solution of the salt

Precipitate	Structure (SMILES)	further results
=start (after	Cc1ccc(Sc2ccccc2C2CCNCC2)cc1 (racemic)	Solubility in words: exceptionally high solubility
=start	Cc1ccc(Sc2ccccc2C2CCNCC2)cc1 [Adipicacid, 1,6-hexanedioic acid 2:1]	–
=Start	Cc1ccc(Sc2ccccc2C2CCNCC2)cc1 [Citric acid 2:1]	–
Hydrate	Cc1ccc(Sc2ccccc2C2CCNCC2)cc1 [D-tartaric acid, D-2,3-dihydroxy butanedioic acid 1:1]	Formation of hydrates: do
=start	Cc1ccc(Sc2ccccc2C2CCNCC2)cc1 [Fumaric acid 1:1]	–
–	Cc1ccc(Sc2ccccc2C2CCNCC2)cc1 [Glutamic acid 1:1]	Solubility in words: exceptionally high solubility
=start	Cc1ccc(Sc2ccccc2C2CCNCC2)cc1 [Glutaric acid, 1,5-pentanedioic acid 1:1]	Solubility in words: exceptionally high solubility
–	Cc1ccc(Sc2ccccc2C2CCNCC2)cc1 [HBr, 4-[2-(4-methylphenylsulfanyl)phenyl]piperidine hydrobromide]	Resulting pH (hydrobromide): 7.0; Precipitate (hydrobromide): =Start; Formation of hydrates (listed as HBr addition salt, hydrobromide): does not form hydrates
=Start	Cc1ccc(Sc2ccccc2C2CCNCC2)cc1 [HCl, 4-[2-(4-methylphenyl-sulfanyl)phenyl]piperidine hydrochloride addition salt]	–
=Start	Cc1ccc(Sc2ccccc2C2CCNCC2)cc1 [Oxalic acid 1:1]	–
–	Cc1ccc(Sc2ccccc2C2CCNCC2)cc1 [Phosphoric acid 1:1]	Resulting pH: 2.0
=Start	Cc1ccc(Sc2ccccc2C2CCNCC2)cc1 [Sebacoinic acid, 1,8-octanedioic acid 2:1]	–
